The results in this text go back to US20110098219A1, “System for Curing Hepatic Cancer with Leptin” (KAOHSIUNG MEDICAL UNIVERSITY, priority 2009, published 2011).

SMILES strings stand for the structures.

This assay has as its target T1, leptin receptor and progesterone receptor (Homo sapiens, UniProt P06401).
T1 construct: endogenous in cells
T1 sequence (P06401 1-933): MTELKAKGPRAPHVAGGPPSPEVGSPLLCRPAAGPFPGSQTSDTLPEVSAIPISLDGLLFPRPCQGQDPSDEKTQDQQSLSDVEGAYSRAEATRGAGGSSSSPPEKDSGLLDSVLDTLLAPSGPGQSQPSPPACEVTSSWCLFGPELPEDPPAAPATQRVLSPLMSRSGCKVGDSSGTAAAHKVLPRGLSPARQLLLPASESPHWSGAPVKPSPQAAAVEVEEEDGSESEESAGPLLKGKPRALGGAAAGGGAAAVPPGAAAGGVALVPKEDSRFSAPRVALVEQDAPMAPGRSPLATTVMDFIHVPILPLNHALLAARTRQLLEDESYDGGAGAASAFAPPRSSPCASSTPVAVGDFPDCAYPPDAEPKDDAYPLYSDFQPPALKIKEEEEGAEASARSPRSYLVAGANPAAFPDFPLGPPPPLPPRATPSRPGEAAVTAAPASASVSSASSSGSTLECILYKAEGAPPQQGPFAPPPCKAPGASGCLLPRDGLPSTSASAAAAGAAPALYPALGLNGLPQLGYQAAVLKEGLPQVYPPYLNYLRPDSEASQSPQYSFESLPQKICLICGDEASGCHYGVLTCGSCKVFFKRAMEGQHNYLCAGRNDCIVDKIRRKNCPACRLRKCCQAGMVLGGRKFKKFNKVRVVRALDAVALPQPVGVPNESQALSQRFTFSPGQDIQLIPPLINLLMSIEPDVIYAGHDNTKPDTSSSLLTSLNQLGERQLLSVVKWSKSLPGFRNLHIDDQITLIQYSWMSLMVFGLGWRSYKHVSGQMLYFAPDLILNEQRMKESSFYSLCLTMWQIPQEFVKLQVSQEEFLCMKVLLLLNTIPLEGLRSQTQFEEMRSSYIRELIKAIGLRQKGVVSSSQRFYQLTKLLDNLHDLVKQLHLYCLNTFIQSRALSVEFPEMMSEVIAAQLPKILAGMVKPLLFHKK
T1 sequence (P48357 22-1165 partner): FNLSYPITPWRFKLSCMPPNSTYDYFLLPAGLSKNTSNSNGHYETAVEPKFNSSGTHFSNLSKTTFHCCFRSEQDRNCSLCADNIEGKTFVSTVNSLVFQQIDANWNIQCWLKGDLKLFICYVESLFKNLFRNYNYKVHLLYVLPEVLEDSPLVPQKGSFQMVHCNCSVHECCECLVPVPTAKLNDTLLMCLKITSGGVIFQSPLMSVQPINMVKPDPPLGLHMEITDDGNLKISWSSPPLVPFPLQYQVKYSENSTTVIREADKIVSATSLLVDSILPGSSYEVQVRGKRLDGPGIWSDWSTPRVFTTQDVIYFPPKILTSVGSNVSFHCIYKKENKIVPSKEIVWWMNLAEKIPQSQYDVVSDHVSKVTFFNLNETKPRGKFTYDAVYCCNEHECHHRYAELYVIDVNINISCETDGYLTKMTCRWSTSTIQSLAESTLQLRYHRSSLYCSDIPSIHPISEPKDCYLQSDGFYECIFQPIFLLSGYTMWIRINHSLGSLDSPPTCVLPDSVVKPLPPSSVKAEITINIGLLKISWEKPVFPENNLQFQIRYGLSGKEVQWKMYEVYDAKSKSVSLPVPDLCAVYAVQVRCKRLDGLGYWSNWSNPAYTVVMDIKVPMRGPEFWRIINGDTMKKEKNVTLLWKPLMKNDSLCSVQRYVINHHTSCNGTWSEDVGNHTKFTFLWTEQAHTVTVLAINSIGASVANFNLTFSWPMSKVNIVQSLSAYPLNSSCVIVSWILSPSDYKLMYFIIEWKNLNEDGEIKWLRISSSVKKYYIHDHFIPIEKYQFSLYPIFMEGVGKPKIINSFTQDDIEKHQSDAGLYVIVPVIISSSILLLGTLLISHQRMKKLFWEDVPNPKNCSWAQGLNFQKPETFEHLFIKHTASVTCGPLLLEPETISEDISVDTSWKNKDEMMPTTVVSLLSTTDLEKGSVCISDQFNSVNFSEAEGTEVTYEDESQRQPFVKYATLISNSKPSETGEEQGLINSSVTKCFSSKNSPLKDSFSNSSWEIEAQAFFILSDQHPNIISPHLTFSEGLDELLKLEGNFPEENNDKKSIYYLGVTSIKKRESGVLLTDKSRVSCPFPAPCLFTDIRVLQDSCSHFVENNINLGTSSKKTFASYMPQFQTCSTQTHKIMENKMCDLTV
Description: Immunoprecipitation and immunofluorescent staining, receptor interaction. Type of assay: cell-based. Here is the method: Please refer to FIG. 8A and FIG. 8B, which are views showing interaction between a leptin receptor and a progesterone receptor through immunoprecipitation and immunofluorescent staining. As shown in the figures, for acknowledging interaction between a leptin receptor and a progesterone receptor, cellular proteins are processed through immunoprecipitation and western blotting with anti-pgR after liver cancer cells are applied with leptin only, MPA only and MPA+leptin for 30 minutes separately. […] The same results are shown through immunofluorescent staining. After the cells are processed for 10 minutes, the progesterone receptor is dyed with FITC; the leptin receptor is dyed with Texas-Red; and cell membrane is dyed with phalloidin, which are observed with fluoresce microscope under 40×. […] Thus, it is confirmed that the leptin receptor and the progesterone receptor interact to work on the liver cancer cells.

For the molecule `CC(=O)O[C@]1(C(C)=O)CC[C@H]2[C@@H]3C[C@H](C)C4=CC(=O)CC[C@]4(C)[C@H]3CC[C@@]21C` [MPA, medroxyprogesterone acetate], the “merged level between leptin receptor and progesterone receptor” value (10 minutes, immunofluorescent staining) is reported as “some of the leptin receptor are merged with some of the progesterone receptor”. Also, the “interaction of leptin receptor and progesterone receptor” value (30 minutes, immunoprecipitation and western blotting with anti-pgR) is on record as “interacted”.
